The results in this text go back to article PMC4540177 (Bioorganic & medicinal chemistry letters, 2013).

One series can be described thus: Mouse brain penetration. The format is in vivo, C57Bl6 mice.
Another series is described as follows: Rat pharmacokinetics. It counts as in vivo, Sprague-Dawley rats.

As for `Cc1ncn(-c2ccc(Nc3cc(-c4nocc4-c4cnn(C)c4)ccn3)cc2)n1` [Compound 27], the “brain penetration (in words)” value in the series “Mouse brain penetration” is reported as “poor brain penetration”. In the series “Rat pharmacokinetics” (rat), the “half live (in words)” value is recorded as “short half live” and the “oral exposure (in words)” value is “good oral exposure”.
Regarding `Cc1ncn(-c2ccc(Nc3cc(-c4nocc4-c4cn[nH]c4C)ccn3)cc2)n1` [Compound 28], the “in vivo properties (in words)” value in “Rat pharmacokinetics” (rat pk) is given as “poor in vivo properties”.
